Where two headings read alike, the source gives them in different places.
Tested on: HCV pseudoparticles (genotype 1a HCV E1 and E2 envelope, H77C isolate)
Test: microbe, parasite or virus in culture
Assay type: cell-based
Settings: Hepatitis C virus
[1] = Huh-7, 48 h, read-out: Activity (EC50 class), HCV pseudoparticles, Huh7 cells, luciferase 2 days after infection, average of duplicates
[2] = Huh-7, read-out: Activity (EC50 class), HCV pseudoparticles (genotype 1a, H77C) in Huh7 cells, EC50 expressed as class A/B
[3] = Huh-7, 48 h, read-out: Activity (EC50 class), HCV pseudoparticle infection of Huh7 cells, luciferase 2 days after infection, EC50 expressed as class A/B
[4] = Huh-7, 48 h, HCV pseudoparticle infection of Huh7 cells, luciferase 2 days after infection, average of duplicates
[5] = Huh-7, 48 h, HCV pseudoparticles (genotype 1a, H77C) in Huh7 cells, average of duplicate, luciferase 2 days after infection

In the case of `O=C(NCC[C@H](NC(=O)c1ccc(Nc2nc(NC3(c4ccc(Cl)cc4)CC3)nc(OCC(F)(F)F)n2)cc1)C(=O)O)C(=O)Nc1cccc(Oc2ccccc2)c1` [Compound 3620], the EC50 [1] is reported as 0.01 to 10 nM.
Work on `CNC(=O)CCc1ccc(NC(=O)C(=O)NCC(C)(C)CNC(=O)c2ccc(Nc3nc(NC4(c5ccc(Cl)cc5)CC4)nc(OCC(F)(F)F)n3)cc2)cc1` [Compound 3025] yielded an EC50 [2] of 0.01 to 10 nM.
With `COC(=O)[C@H](CNC(=O)C(=O)Nc1cccc(Oc2cccnc2)c1)NC(=O)c1ccc(Nc2nc(NC3(c4ccc(Cl)cc4)CC3)nc(OCC(F)(F)F)n2)cc1` [Compound 3737] the EC50 (Huh-7, 48 h, HCV pseudoparticles, Huh7 cells, luciferase 2 days after infection, average of duplicates) was 1.63 nM and the EC50 [1] was 0.01 to 10 nM.
With `CC(C)(CNC(=O)C(=O)Nc1ccc(Cl)c(F)c1)CNC(=O)c1ccc(Nc2nc(NC3(c4ccc(Cl)cc4)CC3)nc(OCC(F)(F)F)n2)cc1` [Compound 3071] the EC50 [2] was 0.01 to 10 nM.
`COC(=O)[C@H](CCNC(=O)C(=O)NC1CCCCC1O)NC(=O)c1ccc(Nc2nc(NC3(c4ccc(Cl)cc4)CC3)nc(OCC(F)(F)F)n2)cc1` (some centres unmarked) [Compound 1098] showed an EC50 [3] of 0.01 to 10 nM.
Work on `C[C@H](NC(=O)C(=O)NCC[C@H](NC(=O)c1ccc(Nc2nc(NC3(c4ccc(Cl)cc4)CC3)nc(OCC(F)(F)F)n2)cc1)C(=O)O)C1CCCCC1` [Compound 1212] yielded an EC50 [4] of 0.07 nM and an EC50 [3] of 0.01 to 10 nM.
In the case of `COCC(NC(=O)C(=O)NCC[C@H](NC(=O)c1ccc(Nc2nc(NC3(c4ccc(Cl)cc4)CC3)nc(OCC(F)(F)F)n2)cc1)C(=O)OC)C1CC1` (some centres unmarked) [Compound 1371], the EC50 [3] is reported as 0.01 to 10 nM.
In the case of `CS(=O)(=O)c1cccc(NC(=O)C(=O)NC[C@H](NC(=O)c2ccc(Nc3nc(NC4(c5ccc(Cl)cc5)CC4)nc(OCC(F)(F)F)n3)cc2)C(=O)O)c1` [Compound 3763], the EC50 [1] is reported as 0.01 to 10 nM.
`COC(=O)[C@H](CCNC(=O)C(=O)Nc1cc(F)ccc1F)NC(=O)c1ccc(Nc2nc(NC3(c4ccc(Cl)cc4)CC3)nc(OCC(F)(F)F)n2)cc1` [Compound 1503] was tested, and the EC50 [3] was 0.01 to 10 nM.
With `CC(C)(CNC(=O)c1ccc(Nc2nc(NC3(c4ccc(Cl)cc4)CC3)nc(OCC(F)(F)F)n2)cc1)NC(=O)C(=O)Nc1ccccc1` [Compound 3425] the EC50 [5] was 0.033 nM and the EC50 [2] was 0.01 to 10 nM.
`COC(=O)[C@H](CNC(=O)C(=O)NCc1ccc(F)cc1)NC(=O)c1ccc(Nc2nc(NC3(c4ccc(Cl)cc4)CC3)nc(OCC(F)(F)F)n2)cc1` [Compound 1133] was tested, and the EC50 [4] was 1.4 nM and the EC50 [3] was 0.01 to 10 nM.
In the case of `COC(=O)[C@H](CCNC(=O)C(=O)Nc1ccc(-c2ccno2)cc1)NC(=O)c1ccc(Nc2nc(NC3(c4ccc(Cl)cc4)CC3)nc(OCC(F)(F)F)n2)cc1` [Compound 3316], the EC50 [2] is reported as 0.01 to 10 nM.
`O=C(NCC[C@H](NC(=O)c1ccc(Nc2nc(NC3(c4ccc(Cl)cc4)CC3)nc(OCC(F)(F)F)n2)cc1)C(=O)O)C(=O)Nc1cc(F)ccc1F` [Compound 1513] showed an EC50 [3] of 0.01 to 10 nM.
`CC(C)(CNC(=O)C(=O)N1CCOCC1)CNC(=O)c1ccc(Nc2nc(NC3(c4ccc(Cl)cc4)CC3)nc(OCC(F)(F)F)n2)cc1` [Compound 3381] was tested, and the EC50 [2] was 0.01 to 10 nM.
In the case of `Cc1cc(C)n(-c2ccccc2NC(=O)C(=O)NCC(C)(C)CNC(=O)c2ccc(Nc3nc(NC4(c5ccc(Cl)cc5)CC4)nc(OCC(F)(F)F)n3)cc2)n1` [Compound 3177], the EC50 [2] is reported as 0.01 to 10 nM.
With `COC(=O)[C@H](CCNC(=O)C(=O)Nc1ccc(OC2CCOCC2)cc1)NC(=O)c1ccc(Nc2nc(NC3(c4ccc(Cl)cc4)CC3)nc(OCC(F)(F)F)n2)cc1` [Compound 3325] the EC50 [5] was 2.4 nM and the EC50 [2] was 0.01 to 10 nM.
Molecule `O=C(NC[C@H](NC(=O)c1ccc(Nc2nc(NC3(c4ccc(Cl)cc4)CC3)nc(OCC(F)(F)F)n2)cc1)C(=O)O)C(=O)NC1CCCCC1` [Compound 1174] has an EC50 [3] of 0.01 to 10 nM.
Work on `COC(=O)[C@H](CNC(=O)C(=O)Nc1cccc(OC(F)F)c1)NC(=O)c1ccc(Nc2nc(NC3(c4ccc(Cl)cc4)CC3)nc(OCC(F)(F)F)n2)cc1` [Compound 3708] yielded an EC50 [1] of 0.01 to 10 nM.
For `COC(=O)[C@H](CNC(=O)C(=O)Nc1ccc(-c2ccccc2C)cc1)NC(=O)c1ccc(Nc2nc(NC3(c4ccc(Cl)cc4)CC3)nc(OCC(F)(F)F)n2)cc1` [Compound 3187], the EC50 [2] was 0.01 to 10 nM.
`CC(C)(CNC(=O)C(N)=O)CNC(=O)c1ccc(Nc2nc(NC3(c4ccc(Cl)cc4)CC3)nc(OCC(F)(F)F)n2)cc1Cl` [Compound 3477] was tested, and the EC50 [5] was 0.12 nM and the EC50 [2] was 0.01 to 10 nM.
